From PMC12528394, “Screening and evaluation of therapeutic candidates with vascular protective effects in zebrafish models of diabetic retinopathy” (Scientific Reports, 2025)

What was measured:
Type in all cases: in vivo
Angiopoietin-1 = assay: RT-PCR mRNA expression in zebrafish DR model; conditions: 100 µg/ml, 130 mM glucose, eyes at 6 dpf, RT-PCR normalized to GAPDH, triplicate
Procedure: (§1) The total RNA were extracted from the eyes at 6 dpf using the mRNA kit (PureLink™ RNA Mini Kit, Ambion). The mRNA was measured with a NanoDrop spectrophotometer (Thermo Scientific, Madison, WI, USA) for quantitative analysis and a cDNA synthesis with a SuperScript VILO cDNA Synthesis Kit (Thermo Scientific, Carlsbad, CA, USA). The cDNA was amplified by PCR with zebrafish primer GAPDH, VEGF, Tie2 and Ang-1 with SYBR Green Master Mix (Thermo Scientific, Carlsbad, CA, USA). The mRNA was detected by ViiA7 Real-Time PCR system (Thermo Scientific, Carlsbad, CA, USA). The values were normalized to GAPDH expression. Samples were analyzed in triplicate.

Tie2 = assay: RT-PCR mRNA expression in zebrafish DR model; conditions: 100 µg/ml, 130 mM glucose, eyes at 6 dpf, RT-PCR normalized to GAPDH, triplicate
Procedure: as §1

VEGF = assay: RT-PCR mRNA expression in zebrafish DR model; conditions: 100 µg/ml, 130 mM glucose, eyes at 6 dpf, RT-PCR normalized to GAPDH, triplicate
Procedure: as §1

zebrafish DR model = assay: Zebrafish diabetic retinopathy model (130 mM glucose): survival and hyaloid-retinal vessel diameter; conditions: 100 µg/ml, 3 to 6 dpf, n = 40 per group
Procedure: On day 3 post-fertilization, zebrafish embryos with normal differentiation were treated with 130 mM glucose in a 24-well plate (5 embryos per well) to induce a diabetic retinopathy model. Peptides 1, 2, and 3 were administered at concentrations of 20, 100, 200, and 400 µg/ml. On day 6 post-fertilization, embryos were fixed with 4% paraformaldehyde and the hyaloid-retina vessels were isolated. Further experimental details can be found in previous studies.

**Q.** Which results are given for aflibercept?
**A.** Angiopoietin-1 mRNA level versus high-glucose group (in words) (Angiopoietin-1): partially restored; Tie2 mRNA level versus high-glucose group (in words) (Tie2): partially restored; VEGF mRNA level versus high-glucose group (in words) (VEGF): significantly reduced; retinal vessel thickness relative to glucose-only group (in words) (zebrafish DR model): effectively reduced
